According to patent US20260285816A1, “Piperazinyl-Modified Quinazolinyl-Aryl Urea Derivative, And Preparation Method And Use Thereof” (Guangxi Normal University, priority 2025, published 2026):
Where two headings read alike, the source gives them in different places.

Tests used:
Format in all cases: cell-based, human
J82 cells = assay: CCK-8 anti-proliferative assay, J82; conditions: Homo sapiens, J82; Table 10; co-incubated 48 h; read-out: Anti-proliferative activity (IC50 ± standard deviation) J82
Outline: (§1)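 Dose range 1–30 μM final (nine levels, n=3), added at 70% confluency to 5,000 cells/well cultured at 37° C., 5% CO2. CCK-8 incubation 1-4 h depending on cell type.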

UM-UC-3 cells = assay: CCK-8 anti-proliferative assay, UM-UC-3; conditions: Homo sapiens, UMUC3; Table 10; co-incubated 48 h; read-out: Anti-proliferative activity (IC50 ± standard deviation) UM-UC-3
Outline: as §1

T24 cells = assay: CCK-8 anti-proliferative assay, T24; conditions: Homo sapiens, T-24; Table 10; co-incubated 48 h; read-out: Anti-proliferative activity (IC50 ± standard deviation) T24
Outline: (§2)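 Human tumour cells were seeded at 5,000 per well and grown to 70% confluence. They were then treated in triplicate with compound at 1–30 μM (final) for the designated time. Viability was read by CCK-8 absorbance at 450 nm after 1–4 h, and IC50 was derived from % inhibition versus control.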

5637 cells = assay: CCK-8 anti-proliferative assay, 5637; conditions: Homo sapiens; Table 10; co-incubated 48 h; read-out: Anti-proliferative activity (IC50 ± standard deviation) 5637
Outline: as §1

143B cells = assay: CCK-8 anti-proliferative assay, 143B; conditions: Homo sapiens, 143B
Outline: as §2

MG-63 cells = assay: CCK-8 anti-proliferative assay, MG-63; conditions: Homo sapiens, MG-63
Outline: as §2

BxPC-3 cells = assay: CCK-8 anti-proliferative assay, BxPC-3; conditions: Homo sapiens, BXPC-3; Table 11; co-incubated 48 h; read-out: Anti-proliferative activity (IC50 ± standard deviation) BxPC-3
Outline: as §2

PANC-1 cells = assay: CCK-8 anti-proliferative assay, PANC-1; conditions: Homo sapiens, PANC-1; Table 11; co-incubated 48 h; read-out: Anti-proliferative activity (IC50 ± standard deviation) PANC-1
Outline: as §2

HeLa cells = assay: CCK-8 anti-proliferative assay, HeLa; conditions: Homo sapiens, HeLa; Table 12; co-incubated 48 h; read-out: Anti-proliferative activity (IC50 ± standard deviation) HeLa
Outline: as §1

MCF-7 cells = assay: CCK-8 anti-proliferative assay, MCF-7; conditions: Homo sapiens, MCF7; Table 12; co-incubated 48 h; read-out: Anti-proliferative activity (IC50 ± standard deviation) MCF-7
Outline: as §1

A549 cells = assay: CCK-8 anti-proliferative assay, A549; conditions: Homo sapiens, A549; Table 13; co-incubated 48 h; read-out: Anti-proliferative activity (IC50 ± standard deviation) A549
Outline: as §1

Hep G2 cells = assay: CCK-8 anti-proliferative assay, Hep G2; conditions: Homo sapiens, HepG2; Table 12; co-incubated 48 h; read-out: Anti-proliferative activity (IC50 ± standard deviation) Hep G2
Outline: as §2

SK-OV-3 cells = assay: CCK-8 anti-proliferative assay, SK-OV-3; conditions: Homo sapiens, SK-OV-3; Table 12; co-incubated 48 h; read-out: Anti-proliferative activity (IC50 ± standard deviation) SK-OV-3
Outline: as §1

[1] = system: immortalized ureteral epithelial cells (SV-HUC-1); assay: CCK-8 anti-proliferative assay, normal cells SV-HUC-1; conditions: Homo sapiens, SV-HUC1; Table 13; normal cells; co-incubated 48 h; read-out: Anti-proliferative activity (IC50 ± standard deviation) SV-HUC-1
Outline: as §1

[2] = system: embryonic lung fibroblasts (WI-38); assay: CCK-8 anti-proliferative assay, normal cells WI-38; conditions: Homo sapiens, WI-38, Table 13, co-incubated 48 h, read-out: Anti-proliferative activity (IC50 ± standard deviation) WI-38
Outline: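 Logarithmic-phase cells are plated at 5,000 cells per well and incubated at 37° C. with 5% CO2. At 70% confluency, compound is added at nine final concentrations from 1 to 30 μM. After exposure, CCK-8 is added and OD at 450 nm measured to calculate IC50.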

[3] = Table 11, co-incubated 48 h, read-out: Anti-proliferative activity (IC50 ± standard deviation) 143B
[4] = Table 11, co-incubated 48 h, read-out: Anti-proliferative activity (IC50 ± standard deviation) MG-63

| Structure (SMILES) | IC50 (J82 cells) [µM] | IC50 (UM-UC-3 cells) [µM] | IC50 (T24 cells) [µM] | IC50 (5637 cells) [µM] | IC50 (143B cells; [3]) [µM] | IC50 (MG-63 cells; [4]) [µM] | IC50 (BxPC-3 cells) [µM] | IC50 (PANC-1 cells) [µM] | IC50 (HeLa cells) [µM] | IC50 (MCF-7 cells) [µM] | IC50 (A549 cells) [µM] | IC50 (Hep G2 cells) [µM] | IC50 (SK-OV-3 cells) [µM] | IC50 [1] [µM] | IC50 [2] [µM] | IC50 (143B cells; read-out: IC50 values, osteosarcoma cells 143B) [µM] | IC50 (MG-63 cells; read-out: IC50 values, osteosarcoma cells MG-63) [µM] |
| --- | --- | --- | --- | --- | --- | --- | --- | --- | --- | --- | --- | --- | --- | --- | --- | --- | --- |
| COc1cc2ncnc(NCc3cccc(NC(=O)Nc4ccccc4Cl)c3)c2cc1OCCCCCCN1CCC(CN2CCN(c3ccccn3)CC2)CC1 [Compound 8-2o, N-(3-(((7-methoxy-6-((6-(4-((4-(pyridin-2-yl)piperazin-1-yl)methyl)piperidin-1-yl)hexyl)oxy)quinazolin-4-yl)amino)methyl)phenyl)-N′-(2-chlorophenyl)urea] | 16.7 ± 1.52 | 15.9 ± 0.95 | 7.93 ± 0.22 | 12.4 ± 0.89 | 13.8 ± 0.82 | 9.92 ± 0.82 | 22.4 ± 1.27 | > 30 | 13.7 ± 1.29 | 16.2 ± 1.07 | 27.2 ± 2.04 | 16 ± 0.96 | 11.9 ± 0.94 | 16.2 ± 0.84 | 12.7 ± 0.89 |  |  |
| COc1cc2ncnc(NCc3cccc(NC(=O)Nc4ccc(Cl)cc4)c3)c2cc1OCCCCCCN1CCC(CN2CCN(c3ccccn3)CC2)CC1 [Compound 8-2q, N-(3-(((7-methoxy-6-((6-(4-((4-(pyridin-2-yl)piperazin-1-yl)methyl)piperidin-1-yl)hexyl)oxy)quinazolin-4-yl)amino)methyl)phenyl)-N′-(4-chlorophenyl)urea] | 6.69 ± 0.53 | 7.19 ± 0.47 | 6.76 ± 0.38 | 4.32 ± 0.33 | 7.08 ± 0.85 | 8.61 ± 0.53 | 13.2 ± 0.78 | 15.2 ± 0.67 | 7.72 ± 0.34 | 6.44 ± 0.71 | 13.3 ± 0.86 | 10.7 ± 0.98 | 5.62 ± 0.47 | 9.49 ± 0.73 | 7.36 ± 0.23 |  |  |
| COc1cc2ncnc(NCc3cccc(NC(=O)Nc4ccc(Cl)cc4Cl)c3)c2cc1OCCCCCCN1CCC(CN2CCN(c3ccccn3)CC2)CC1 [Compound 8-2r, N-(3-(((7-methoxy-6-((6-(4-((4-(pyridin-2-yl)piperazin-1-yl)methyl)piperidin-1-yl)hexyl)oxy)quinazolin-4-yl)amino)methyl)phenyl)-N′-(2,4-dichlorophenyl)urea] | 4.73 ± 0.38 | 11.7 ± 0.96 | 5.12 ± 0.39 | 6.29 ± 0.37 | 8.91 ± 0.77 | 7.02 ± 0.58 | 10.3 ± 0.93 | 14.6 ± 0.78 | 7.37 | 11.4 ± 0.76 | 12.3 ± 0.92 | 7.02 ± 0.49 | 11.3 ± 0.83 | 8.41 ± 0.43 | 7.72 ± 0.39 |  |  |
| COc1cc2ncnc(NCc3cccc(NC(=O)Nc4c(Cl)cc(Cl)cc4Cl)c3)c2cc1OCCCCCCN1CCC(CN2CCN(c3ccccn3)CC2)CC1 [Compound 8-2s, N-(3-(((7-methoxy-6-((6-(4-((4-(pyridin-2-yl)piperazin-1-yl)methyl)piperidin-1-yl)hexyl)oxy)quinazolin-4-yl)amino)methyl)phenyl)-N′-(2,4,6-trichlorophenyl)urea] | 4.62 ± 0.33 | 10 ± 0.73 | 7.73 ± 0.47 | 4.87 ± 0.29 | 5.94 ± 0.43 | 11 ± 0.97 | 9.72 ± 0.95 | 10.4 ± 0.62 | 7.99 ± 0.68 | 5.88 ± 0.57 | 7.32 ± 0.85 | 4.91 ± 0.55 | 6.02 ± 0.39 | 8.36 ± 1.62 | 11.5 ± 0.62 |  |  |
| COc1cc2ncnc(NCc3cccc(NC(=O)Nc4ccc(C(F)(F)F)cc4)c3)c2cc1OCCCCCCN1CCC(CN2CCN(c3ccccn3)CC2)CC1 [Compound 8-2t, N-(3-(((7-methoxy-6-((6-(4-((4-(pyridin-2-yl)piperazin-1-yl)methyl)piperidin-1-yl)hexyl)oxy)quinazolin-4-yl)amino)methyl)phenyl)-N′-(4-(trifluoromethyl)phenyl)urea] | 5.46 ± 0.41 | 6.79 ± 0.41 | 6.47 ± 0.25 | 7.32 ± 0.57 | 9.42 ± 0.56 | 11.7 ± 0.92 | 11.3 ± 0.73 | 15.6 ± 0.93 | 7.29 ± 0.24 | 5.94 ± 0.36 | 11.8 ± 0.88 | 4.76 ± 0.45 | 13.3 ± 0.84 | 8.92 ± 0.49 | 10.6 ± 0.64 |  |  |
| COc1cc2ncnc(NCc3cccc(NC(=O)Nc4ccc(F)c(C(F)(F)F)c4)c3)c2cc1OCCCCCCN1CCC(CN2CCN(c3ccccn3)CC2)CC1 [Compound 8-2u] | 12.9 ± 0.66 | 11.9 ± 0.66 | 14.1 ± 0.77 | 13.2 ± 0.78 | 13.6 ± 0.92 | 16 ± 1.07 | 25.4 ± 1.57 | > 30 | > 30 | 9.92 ± 0.86 | 12.4 ± 1.43 | 14.3 ± 1.33 | 15.6 ± 0.92 | 23.1 ± 0.97 | 15.9 ± 0.85 |  |  |
| COc1cc2ncnc(NCc3cccc(NC(=O)Nc4ccc(Cl)c(C(F)(F)F)c4)c3)c2cc1OCCCCCCN1CCC(CN2CCN(c3ccccn3)CC2)CC1 [Compound 8-2v] | 11.1 ± 0.69 | 6.77 ± 0.69 | 4.73 ± 0.42 | 11.8 ± 0.95 | 6.84 ± 0.59 | 8.02 ± 0.79 | 14.9 ± 1.28 | 14.9 ± 0.79 | 6.98 ± 0.83 | 4.41 ± 0.27 | 7.98 ± 0.92 | 4.97 ± 0.35 | 5.49 ± 0.63 | 7.33 ± 0.46 | 8.71 ± 0.52 |  |  |
| COc1cc2ncnc(NCc3cccc(NC(=O)Nc4cc(C(F)(F)F)cc(C(F)(F)F)c4)c3)c2cc1OCCCCCCN1CCC(CN2CCN(c3ccccn3)CC2)CC1 [Compound 8-2w, N-(3-(((7-methoxy-6-((6-(4-((4-(pyridin-2-yl)piperazin-1-yl)methyl)piperidin-1-yl)hexyl)oxy)quinazolin-4-yl)amino)methyl)phenyl)-N′-(3,5-bis(trifluoromethyl)phenyl)urea] | 7.84 ± 0.52 | 6.42 ± 0.16 | 5.92 ± 0.54 | 13.1 ± 0.67 | 8.04 ± 0.45 | 8.33 ± 0.81 | 15.5 ± 0.92 | 15.1 ± 0.66 | 6.42 ± 0.56 | 5.59 ± 0.46 | 9.69 ± 0.72 | 5.87 ± 0.49 | 5.16 ± 0.27 | 7.19 ± 0.68 | 9.49 ± 0.42 |  |  |
| COc1cc2ncnc(NCc3cccc(NC(=O)NCc4ccccc4)c3)c2cc1OCCCCCCN1CCC(CN2CCN(c3ccccn3)CC2)CC1 [Compound 8-2y, N-(3-(((7-methoxy-6-((6-(4-((4-(pyridin-2-yl)piperazin-1-yl)methyl)piperidin-1-yl)hexyl)oxy)quinazolin-4-yl)amino)methyl)phenyl)-N′-benzylurea] | 4.13 ± 0.32 | 3.92 ± 0.24 | 4.07 ± 0.19 | 4.92 ± 0.31 | 6.74 ± 0.52 | 5.91 ± 0.46 | 11 ± 0.85 | 7.36 ± 0.42 | 5.02 ± 0.49 | 5.71 ± 0.54 | 7.01 ± 0.62 | 5.92 ± 0.66 | 6.23 ± 0.56 | 8.96 ± 0.67 | 9.89 ± 0.23 |  |  |
| COc1cc2ncnc(NCc3cccc(NC(=O)NC4CCCCC4)c3)c2cc1OCCCCCCN1CCC(CN2CCN(c3ccccn3)CC2)CC1 [Compound 8-2z, N-(3-(((7-methoxy-6-((6-(4-((4-(pyridin-2-yl)piperazin-1-yl)methyl)piperidin-1-yl)hexyl)oxy)quinazolin-4-yl)amino)methyl)phenyl)-N′-cyclohexylurea] | 3.93 ± 0.22 | 3.71 ± 0.19 | 5.33 ± 0.52 | 3.96 ± 0.19 | 4.77 ± 0.26 | 4.05 ± 0.34 | 10.3 ± 0.93 | 14.9 ± 0.98 | 6.39 ± 0.68 | 6.32 ± 0.49 | 11.1 ± 0.83 | 5.23 ± 0.52 | 8.69 ± 0.72 | 8.02 ± 0.81 | 10.9 ± 0.59 | < 5 | < 5 |
